Results as given in patent publication US5912351A, “Anhydrous 1,4-Dihydropyridines and salts thereof” (Recordati, S.A. Chemical and Pharmaceutical Company, priority 1995, dated 1999).
Read-outs that look alike come from different tables or passages of the source.

Assays:
[1] = target: T1, enzyme ACAT (Mus musculus, UniProt Q61263); assay: Cholesterol esterification in cholesterol ester loaded macrophages; type: cell-based; settings: macrophages preloaded with cholesteryl esters
T1 construct: Mouse peritoneal macrophages were obtained by peritoneal lavage from mice; endogenous in cells; host or cells: peritoneal macrophages of Balb/c mice, three days after intraperitoneal thioglycolate
T1 sequence (Q61263 1-540): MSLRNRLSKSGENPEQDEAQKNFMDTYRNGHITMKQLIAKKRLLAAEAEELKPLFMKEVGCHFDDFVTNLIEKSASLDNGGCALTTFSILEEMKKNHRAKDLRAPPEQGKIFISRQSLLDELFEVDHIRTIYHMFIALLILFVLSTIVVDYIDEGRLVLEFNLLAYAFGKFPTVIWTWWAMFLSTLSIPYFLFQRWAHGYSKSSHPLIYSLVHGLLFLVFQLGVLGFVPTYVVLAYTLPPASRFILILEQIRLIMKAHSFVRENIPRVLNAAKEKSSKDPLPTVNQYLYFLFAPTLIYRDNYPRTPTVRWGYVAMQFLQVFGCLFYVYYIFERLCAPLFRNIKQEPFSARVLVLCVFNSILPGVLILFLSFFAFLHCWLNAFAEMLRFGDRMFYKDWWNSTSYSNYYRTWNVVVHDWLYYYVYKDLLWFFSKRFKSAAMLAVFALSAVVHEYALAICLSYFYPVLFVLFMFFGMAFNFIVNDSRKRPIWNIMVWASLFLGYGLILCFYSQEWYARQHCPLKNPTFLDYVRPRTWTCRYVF
Description: Cholesterol esterification induced by AcLDL in mouse peritoneal macrophages was investigated as follows. Mouse peritoneal macrophages were obtained by peritoneal lavage from mice (Balb/c Charles River, Calco, Italy) three days after intraperitoneal injection of thioglycolate. Cells (2×3×10^6) were plated in 35 mm wells with Dulbecco's minimum essential medium containing 10% fetal bovine serum. After 3 hours, the dishes were washed to eliminate unattached cells and maintained in Dulbecco's minimum essential medium plus 10% fetal bovine serum for 24 hours before use. After cell plating, experiments were performed at 37° C. in serum free Dulbecco's minimum essential medium containing 0.2% essentially fatty acid-free bovine serum albumin, AcLDL, a specific ACAT inhibitor, S-58035 (See C. A. Ross et al., J. Biol, Chem. 259: 815-819 (1984)), and lercanidipine, or the lercanidipine enantiomers indicated. Human LDL (d=1.019-1.063 g/ml) were isolated from plasma of healthy volunteers by sequential ultracentrifugation (Beckman L5-50, Palo Alto, Calif.). For acetylation, LDL were dialyzed against 0. 15 M NaCl , pH 7.4, diluted with an equal volume of saturated sodium acetate and treated with acetic anhydride. For [^125 1]AcLDL, lipoproteins were labelled with sodium [^125 I]iodide desalted by gel filtration on Sephadex G-25 eluted with phosphate buffered saline. Specific activity was 100-200 cpm/ng of protein. Trichloroacetic acid non-precipitable radioactivity was below 2% of total. All lipoproteins were sterile filtered. The cells were incubated for 24 hours with the tested compounds. […] Cholesterol esterification was measured after addition of [1-^14 C] oleic acid (0.68 mCi sample) complexed with bovine serum albumin during the last 1 or 2 hours of incubation by subsequent determination of radioactivity associated with cellular cholesteryl esters. […]
Cells, prepared according to the procedure in Example 6A, are loaded with cholesteryl esters by exposure for 24 hours to a medium containing 50 μg/ml acetyl LDL. ACAT inhibition was then determined as in Example 6A.

[2] = system: rat aortic smooth muscle cells (myocytes); assay: Myocytes growth inhibition measured by cell count (rat myocytes); type: cell-based; settings: 72 h, cell count after 72 hours, read-out: IC50 = concentration required to inhibit cell growth by 50%
Description: Migration of myocytes was investigated for the present invention using rat aortic smooth muscle cells in the presence of fibrinogen as chemotactic factor, whereas for studies on their proliferation rat and human cells were used. Cell count and [3H]-thymidine incorporation were used to evaluate myocytes growth. The methodology was as follows:
Myocytes were cultured from the intima-medial layer of the aortas of male Sprague-Dawley rats (200-250 g). Cells were grown in monolayers at 37° C. in a humidified atmosphere of 5% CO2 in Eagle's minimum essential medium supplemented with 10% (v/v) fetal calf serum, 100 U/ml penicillin, 0.1 mg/ml streptomycin, 20 mM tricine buffer and 1% (v/v) non-essential amino acid solution. The medium was changed every third day. Cells were used between the 4th and 10th passage. Cell viability was timely assessed by trypan blue exclusion. Myocytes were identified for growth behavior, morphology and using monoclonal antibody specific for a-actin, the actin isoform typical of myocytes. Human vascular myocytes (A 617 from human femoral artery) kindly provided by Prof. G. Gabbiani of The General Pathology Institute (Geneva University--Switzerland) were grown in the same culture conditions. (These or other human vascular myocytes can be obtained and cultured as described by Corsini et al., Atherosclerosis, 101: 117-125, (1993); Corsini et al., Pharm. Res, 23: 173 (1991); Ross, R, J. Cell Bio., 50: 172, (1971); and Skalli, 0. et al., J. Cell Bio., 103: 2787 (1986)).
Cells were seeded at various densities for rat (2×10^5) and human (5 10×10^4) myocytes/petri dish (35 mm), and incubated with Eagle's minimum essential medium supplemented with 10% fetal calf serum. Twenty-four hours later the medium was changed to one containing 0.4% fetal calf serum to stop cell growth, and the cultures were incubated for 72 hours. At this time (time 0) the medium was replaced by one containing 10% fetal calf serum in the presence or absence of known concentrations of the 1,4-dihydropyridine compounds being tested (shown in Table 1). The incubation was continued for an additional 72 hours at 37° C. Just before the addition of the test substances, an aliquot from each petri dish was used for cell counting. Cell proliferation was evaluated by cell count after trypsinization of the monolayers using a Coulter Counter model ZM. Cell viability was assessed by trypan blue exclusion, and found to be greater than 95% at the drug concentrations used.

[3] = myocytes from SD (Sprague Dawley) rat
[4] = myocytes from SHR (Spontaneously Hypertensive) rat
[5] = myocytes from WK (Wistar Kyoto) rat

SMILES | relative potency, cholesterol esterification [1] | IC50 ([1]; FIG. 4) | IC50 [2, 3] | IC50 [2, 4] | IC50 [2, 5]
COC(=O)C1=C(C)NC(C)=C(C(=O)OC(C)(C)CN(C)CCC(c2ccccc2)c2ccccc2)[C@@H]1c1cccc([N+](=O)[O-])c1 [(R)-LE, (R)-(-)METHYL 1,1-N-TRIMETHYL-N-(3,3-DIPHENYLPROPYL)-2-AMINOETHYL 1,4-DIHYDRO-2,6-DIMETHYL-4-(3-NITROPHENYL)PYRIDINE-3,5-DICARBOXYLATE] | slightly more potent than the racemate | ~7 µM | 30.7 µM | 9.2 µM | 15.3 µM
COC(=O)C1=C(C)NC(C)=C(C(=O)OC(C)(C)CN(C)CCC(c2ccccc2)c2ccccc2)[C@H]1c1cccc([N+](=O)[O-])c1 [(S)-LE, (S)-(+)-METHYL 1,1-N-TRIMETHYL-N-(3,3-DIPHENYLPROPYL)-2-AMINOETHYL 1,4-DIHYDRO-2,6-DIMETHYL-4-(3-NITROPHENYL)PYRIDINE-3,5-DICARBOXYLATE] | least potent | – | 33.3 µM | 16.8 µM | 20.7 µM
